What was measured:
Parental BaF3 = assay: Anti-proliferation, BaF3 isogenic cell lines (CellTiter-Glo); assay type: cell-based; conditions: Mus musculus; Parental BaF3; 72 hours; triplet testing
BaF3-TEL-EGFR-C797S = assay: as above; assay type: cell-based; conditions: Mus musculus, 72 hours, triplet testing
CHO = assay: Anti-proliferation, normal cells (CellTiter-Glo); conditions: Cricetulus griseus, 72 h
Procedure: (§2) Cells were grown in 96-well culture plates (2500-3000/well). For adherent cell lines, compounds of various concentrations were added into the plates after cells were cultured for 12 hours. Cell proliferation was determined after treatment with compounds for 72 hours. Cell viability was measured using the CellTiter–Glo assay (Promega, USA) according to the manufacturer's instructions, and luminescence was measured in a multi-label reader (Envision, PerkinElmer, USA). Data were normalized to control groups (DMSO) and represented by the mean of three independent measurements with standard error <20%. GI50 values were calculated using Prism 5.0 (GraphPad Software, San Diego, CA).

[1] = tested on: BaF3-TEL-EGFR-T790M-C797S; assay: Anti-proliferation, BaF3 isogenic cell lines (CellTiter-Glo); assay type: cell-based; conditions: Mus musculus, 72 hours, triplet testing
H1975 (EGFRL858R/T790M) = assay: Anti-proliferation, NSCLC cell lines (CellTiter-Glo); assay type: cell-based, human; conditions: Homo sapiens, NCI-H1975; H1975 (EGFRL858R/T790M); 72 hours; triplet testing
Procedure: (§1) The human cancer cell lines H1975, HCC827, H2122, CHO, CHL and H1355 were purchased from the American Type Culture Collection (ATCC) (Manassas, VA, USA). PC9 cell line was purchased from the Sigma-Aldrich (St. Louis, MO, USA). A549, H3255 were purchased from Cobioer Biosciences CO., LTD (Nanjing, China). […] A549 and H1355 were cultured in F-12K Nutrient Mixture (kaighn's Modification) (Gibco, USA) with 10% FBS and supplemented with 2% L-glutamine and 1% pen/strep. H3255 was cultured in BEGM media (LONZA, USA) with 10% FBS and supplemented with 2% L-glutamine and 1% pen/strep.

BaF3-FL-EGFR-del19-T790M = assay: Anti-proliferation, BaF3 isogenic cell lines (CellTiter-Glo); assay type: cell-based; conditions: Mus musculus, 72 hours, triplet testing
[2] = tested on: BaF3-FL-EGFR-L858R-T790M-C797S; assay: as above; assay type: cell-based; conditions: Mus musculus, 72 hours, triplet testing
BaF3-TEL-EGFR-L858R = assay: as above; assay type: cell-based; conditions: Mus musculus, 72 hours, triplet testing
CHL = assay: Anti-proliferation, normal cells (CellTiter-Glo); conditions: Cricetulus griseus, 72 h
Procedure: as §2

[3] = tested on: BaF3-FL-EGFR-del19-T790M-C797S; assay: Anti-proliferation, BaF3 isogenic cell lines (CellTiter-Glo); assay type: cell-based; conditions: Mus musculus, 72 hours, triplet testing
HCC827 (EGFR del19) = assay: Anti-proliferation, NSCLC cell lines (CellTiter-Glo); assay type: cell-based; conditions: Homo sapiens, 72 hours, triplet testing
Procedure: as §1

H2122 (EGFR wt) = assay: as above; assay type: cell-based; conditions: Homo sapiens, NCI-H2122, 72 hours, triplet testing
Procedure: as §1

H1703 (EGFR wt) = assay: as above; assay type: cell-based; conditions: Homo sapiens, NCI-H1703, 72 hours, triplet testing
Procedure: as §1

PC-9 (EGFR del19) = assay: as above; assay type: cell-based; conditions: Homo sapiens, 72 hours, triplet testing
Procedure: as §1

H1355(EGFR wt) = assay: as above; assay type: cell-based; conditions: Homo sapiens, NCI-H1355, 72 hours, triplet testing
Procedure: as §1

A549 (EGFR wt) = assay: as above; assay type: cell-based; conditions: Homo sapiens, 72 hours, triplet testing
Procedure: as §1

H3255 (EGFRL858R) = assay: as above; assay type: cell-based; conditions: Homo sapiens, NCI-H3255, 72 hours, triplet testing
Procedure: as §1

BaF3-TEL-EGFR-T790M = assay: Anti-proliferation, BaF3 isogenic cell lines (CellTiter-Glo); assay type: cell-based; conditions: Mus musculus, 72 hours, triplet testing
BaF3-FL-EGFR-L858R-T790M = assay: as above; assay type: cell-based; conditions: Mus musculus, 72 hours, triplet testing
BaF3-FL-EGFR-del19 = assay: as above; assay type: cell-based; conditions: Mus musculus, 72 hours, triplet testing
BaF3-TEL-EGFR = assay: as above; assay type: cell-based; conditions: Mus musculus, 72 hours, triplet testing
[4] = tested on: BaF3-TEL-EGFR-L858R-C797S; assay: as above; assay type: cell-based; conditions: Mus musculus, 72 hours, triplet testing
BaF3-INSR = assay: Anti-proliferative effects, INSR transformed isogenic BaF3 cells; assay type: cell-based; conditions: Mus musculus, read-out: IC50 (anti-proliferative; GI50)
MNK2 kinase = conditions: cited from earlier work
[5] = quoted in discussion for comparison; species, route and reference not given; cited from earlier work
[6] = tested on: EGFR Y1068 phosphorylation in BaF3-TEL-EGFR cells; assay: EGFR Y1068 auto-phosphorylation in transformed BaF3 cells; conditions: Mus musculus, BaF3, 4 h, read-out: EC50, phosphorylation of EGFR Y1068
BaF3-IGF1R = assay: Anti-proliferative effects, IGF1R transformed isogenic BaF3 cells; assay type: cell-based; conditions: Mus musculus, read-out: IC50 (anti-proliferative; GI50)

SMILES | GI50 (Parental BaF3) [µM] | GI50 (BaF3-TEL-EGFR-C797S) [µM] | GI50 (CHO) [µM] | GI50 [1] [µM] | GI50 (H1975 (EGFRL858R/T790M)) [µM] | GI50 (BaF3-FL-EGFR-del19-T790M) [µM] | GI50 [2] [µM] | GI50 (BaF3-TEL-EGFR-L858R) [µM] | GI50 (CHL) [µM] | GI50 [3] [µM] | GI50 (HCC827 (EGFR del19)) [µM] | GI50 (H2122 (EGFR wt)) [µM] | GI50 (H1703 (EGFR wt)) [µM] | GI50 (PC-9 (EGFR del19)) [µM] | GI50 (H1355(EGFR wt)) [µM] | GI50 (A549 (EGFR wt)) [µM] | GI50 (H3255 (EGFRL858R)) [µM] | GI50 (BaF3-TEL-EGFR-T790M) [µM] | GI50 (BaF3-FL-EGFR-L858R-T790M) [µM] | GI50 (BaF3-FL-EGFR-del19) [µM] | further results
CCC(=O)N1CCC[C@@H](n2nc(-c3ccc(OCc4cccc(C)n4)c(Cl)c3)c3c(N)ncnc32)C1 [CHMFL-EGFR-26R] | > 10 | 6.6 | > 10 | > 10 | > 10 | 7.1 | > 10 | > 10 | > 10 | 7.3 | > 10 | > 10 | 9.4 | > 10 | > 10 | > 10 | > 10 | > 10 | > 10 | > 10 | GI50 (BaF3-TEL-EGFR): > 10 µM; GI50 [4]: > 10 µM
C=CC(=O)Nc1cc(Nc2nccc(-c3cn(C)c4ccccc34)n2)c(OC)cc1N(C)CCN(C)C [AZD9291, reference compound] | 1.5 | 0.59 | 4.2 | 0.55 | 0.052 | < 0.0003 | 0.31 | < 0.0003 | 2.9 | 0.2 | 0.001 | 1.2 | 3.5 | 0.002 | 3 | 3.5 | 0.033 | 0.013 | < 0.0003 | 0.001 | IC50 (BaF3-INSR): 0.5 µM; IC50 (MNK2 kinase): 0.095 µM; T1/2 [5]: 3.1 h; EC50 [6]: 0.063 µM; IC50 (BaF3-IGF1R): 0.56 µM; GI50 (BaF3-TEL-EGFR): 0.3 µM; GI50 [4]: 0.59 µM
